Target: T1, Serpin H1 (Mus musculus, UniProt P19324)
T1 sequence (P19324 whole entry): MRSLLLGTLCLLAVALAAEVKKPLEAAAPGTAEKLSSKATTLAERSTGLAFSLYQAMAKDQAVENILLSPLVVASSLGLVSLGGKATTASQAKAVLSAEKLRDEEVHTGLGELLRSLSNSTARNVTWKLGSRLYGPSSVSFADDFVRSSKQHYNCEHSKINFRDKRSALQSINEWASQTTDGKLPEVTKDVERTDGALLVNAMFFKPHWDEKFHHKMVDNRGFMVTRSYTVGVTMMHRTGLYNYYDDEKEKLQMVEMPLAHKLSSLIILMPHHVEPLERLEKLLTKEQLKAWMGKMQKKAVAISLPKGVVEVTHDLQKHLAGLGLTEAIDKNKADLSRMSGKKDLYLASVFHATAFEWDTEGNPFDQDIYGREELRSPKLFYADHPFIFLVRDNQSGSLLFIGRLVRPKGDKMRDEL
Experiment: Binding affinity to mouse recombinant HSP47 expressed in Escherichia coli JM109 after 10 mins by surface plasmon resonance assay

- IC50: > 100 µM
Compound: N=C(N)NCCC[C@H](NC(=O)[C@@H]1CCCN1C(=O)CNC(=O)[C@H](CCC(=O)O)NC(=O)[C@@H]1CCCN1C(=O)CNC(=O)[C@@H]1CCCN1C(=O)[C@@H]1CCCN1C(=O)CNC(=O)[C@@H]1C[C@@H](O)CN1C(=O)[C@@H]1CCCN1)C(=O)NCC(=O)N1CCC[C@H]1C(=O)N[C@@H](CCCNC(=N)N)C(=O)NCC(=O)N1CCC[C@H]1C(=O)N1CCC[C@H]1C(=O)NCC(=O)N1CCC[C@H]1C(=O)N1CCC[C@H]1C(=O)NCC(=O)N1CCC[C@H]1C(=O)N1CCC[C@H]1C(=O)NCC(=O)N1CCC[C@H]1C(=O)N1CCC[C@H]1C(=O)NCC(N)=O

Reference: ChEMBL document CHEMBL1165939, “A structure-activity relationship study elucidating the mechanism of sequence-specific collagen recognition by the chaperone HSP47” (Bioorg Med Chem, 2010)
